Source: publication PMC3132655, “Synthesis and In Vitro Evaluation of Novel Nortropane Derivatives as Potential Radiotracers for Muscarinic M2 Receptors” (International Journal of Molecular Imaging, 2011)
Values joined by “and” are separate entries in the source; they are usually repeats but may differ in a detail not shown here. Equal values may be shown once. Read-outs that look alike come from different tables or passages of the source.

Tests used:
muscarinic M2 receptor = details: [3H]QNB as reference tracer; ref 27 (Pei et al.); cited from earlier work
[1] = target: T1, recombinant human muscarinic M2 receptor (Homo sapiens, UniProt P08172); assay: competitive binding against [3H]NMS, CHO cell membranes, M2; details: for affinity for M2 (in words): [3H]NMS competition
T1 construct: purchased Perkin Elmer, Waltham, USA; host or cells: CHO cells (membrane suspensions)
T1 sequence (P08172 1-466): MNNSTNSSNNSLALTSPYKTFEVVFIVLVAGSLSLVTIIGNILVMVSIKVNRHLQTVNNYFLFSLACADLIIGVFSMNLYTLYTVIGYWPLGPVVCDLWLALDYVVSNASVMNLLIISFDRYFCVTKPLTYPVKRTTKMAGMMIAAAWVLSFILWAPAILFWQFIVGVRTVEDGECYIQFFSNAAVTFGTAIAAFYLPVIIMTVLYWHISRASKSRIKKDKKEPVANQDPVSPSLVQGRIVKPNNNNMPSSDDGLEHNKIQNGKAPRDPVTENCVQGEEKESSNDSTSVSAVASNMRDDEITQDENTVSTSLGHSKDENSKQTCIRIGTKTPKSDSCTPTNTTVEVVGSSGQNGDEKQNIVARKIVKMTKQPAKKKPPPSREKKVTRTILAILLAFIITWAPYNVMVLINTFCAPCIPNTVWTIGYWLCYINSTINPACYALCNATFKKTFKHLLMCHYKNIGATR
Protocol: (§1) Assays were performed on membrane suspensions from CHO cells expressing either the recombinant human muscarinic M1, M2, or the M3 receptor subtype (Perkin Elmer, Waltham, USA).
(§2) In the competitive binding assays, incubation buffer contained 50 mM TRIS-HCl, 10 mM MgCl2, and 1 mM EDTA (pH 7.4 at 4°C). The assays were incubated during 60 min (M1 or M2 receptor subtypes) or 120 min (M3 receptor subtypes) at 27°C. Nonspecific binding was determined using atropine as a competitor in a concentration of 1 μM.
(§3) In the first series of competitive binding assays, the 6β-4′-iodobenzyl ether (5b) and the 6β-4′-iodobenzoate ester (5c) of 6β-nortropinol, as well as the lead compound 6β-acetoxynortropane (5a), were tested. Protein concentrations for undiluted receptor subtype suspensions were 1.2 mg/mL (M1), 4.3 mg/mL (M2), and 2.0 mg/mL (M3). […] Final competitor concentrations ranged from 1.0 · 10^−10 M to 1.0 · 10^−4 M. After incubation, the reaction was rapidly terminated by vacuum filtration over GF/C glass fiber filters, presoaked in 0.3% polyethylenimine (Sigma-Aldrich, Munich, Germany), and washed 5 times with 1 mL of ice-cold buffer. Filters were placed in vials with 10 mL of scintillation fluid (Ultima Gold, Perkin Elmer, Waltham, USA) and counted in a liquid scintillation counter (Tri-Carb 2900 TR Liquid Scintillation Analyzer, Packard. Software version: 3100).
(§4) In the second series of competitive binding assays, derivative 10a and 10b and the lead compound 6β-acetoxynortropane (5a) were tested. In this series, the protein concentrations for undiluted receptor subtype suspensions were 0.6 mg/mL (M1), 7.5 mg/mL (M2), and 1.5 mg/mL (M3). […] Final competitor concentrations ranged from 1.0 · 10^−10 M to 1.0 · 10^−5 M. After incubation, the assays were filtrated over UniFilter 96 GF/C filter plates, presoaked in 0.3% polyethylenimine (Sigma-Aldrich, Munich, Germany), and washed 9 times with 200 μL of ice-cold buffer. 30 μL of scintillation fluid (MicroScint, Perkin Elmer, Waltham, USA) was added, and the filter plates were counted in a liquid scintillation counter (TopCount 5.0 Liquid Scintillation Analyzer, Perkin Elmer, Waltham, USA).

[2] = target: T2, recombinant human muscarinic M3 receptor (Homo sapiens, UniProt P20309); assay: competitive binding against [3H]NMS, CHO cell membranes, M3; details: for selectivity ratio for M2 over M3: ratio of Ki, [3H]NMS; for affinity for M3 (in words): [3H]NMS competition
T2 construct: purchased Perkin Elmer, Waltham, USA; host or cells: CHO cells (membrane suspensions)
Protocol: as §1, §2, §3, §4

[3] = target: T3, recombinant human muscarinic M1 receptor (Homo sapiens, UniProt P11229); assay: competitive binding against [3H]NMS, CHO cell membranes, M1; details: for selectivity ratio for M2 over M1: ratio of Ki, [3H]NMS; for affinity for M1 (in words): [3H]NMS competition
T3 construct: purchased Perkin Elmer, Waltham, USA; host or cells: CHO cells (membrane suspensions)
Protocol: as §1, §2, §3, §4

[4] = first series, n = 3, [3H]NMS 0.2 nM, read-out: Ki for M2

T2 sequence (P20309 whole entry): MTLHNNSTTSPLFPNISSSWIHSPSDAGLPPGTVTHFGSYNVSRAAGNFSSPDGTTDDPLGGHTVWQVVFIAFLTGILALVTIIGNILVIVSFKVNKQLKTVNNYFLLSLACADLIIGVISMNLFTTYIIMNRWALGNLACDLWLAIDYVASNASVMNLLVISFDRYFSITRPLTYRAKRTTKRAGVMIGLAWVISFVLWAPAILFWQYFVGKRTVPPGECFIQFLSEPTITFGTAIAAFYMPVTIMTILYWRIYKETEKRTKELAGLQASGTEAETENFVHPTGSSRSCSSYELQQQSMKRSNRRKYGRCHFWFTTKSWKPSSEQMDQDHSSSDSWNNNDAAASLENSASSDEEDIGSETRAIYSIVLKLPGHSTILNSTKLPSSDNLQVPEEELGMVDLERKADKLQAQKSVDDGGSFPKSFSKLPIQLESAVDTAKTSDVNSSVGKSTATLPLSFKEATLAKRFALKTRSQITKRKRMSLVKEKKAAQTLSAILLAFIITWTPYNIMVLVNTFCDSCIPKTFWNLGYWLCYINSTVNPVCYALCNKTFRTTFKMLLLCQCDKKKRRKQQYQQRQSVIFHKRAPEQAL
T3 sequence (P11229 whole entry): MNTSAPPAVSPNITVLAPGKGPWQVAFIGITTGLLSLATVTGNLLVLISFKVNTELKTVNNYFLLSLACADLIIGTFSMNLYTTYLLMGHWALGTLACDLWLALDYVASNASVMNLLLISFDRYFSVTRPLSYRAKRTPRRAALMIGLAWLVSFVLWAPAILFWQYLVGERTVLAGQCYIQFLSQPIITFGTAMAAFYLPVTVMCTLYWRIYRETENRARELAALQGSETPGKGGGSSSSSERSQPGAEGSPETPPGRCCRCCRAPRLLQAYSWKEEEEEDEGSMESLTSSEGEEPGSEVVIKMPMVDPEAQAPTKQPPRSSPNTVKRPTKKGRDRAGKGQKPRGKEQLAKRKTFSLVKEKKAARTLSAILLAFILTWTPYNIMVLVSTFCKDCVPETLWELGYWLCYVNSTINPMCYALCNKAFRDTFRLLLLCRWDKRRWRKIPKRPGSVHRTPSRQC

In the case of `CC(=O)OC1CC2CCCC1N2` (stereo not drawn) [5a, 6β-acetoxynortropane, reference compound], the Ki (muscarinic M2 receptor) is given as 2.6 nM, the Ki ([1]; Ki for M2, first series/experiment, n = 3, [3H]NMS 0.2 nM, average ± SD) is given as 88.1 nM and 88 nM and the Ki ([1]; Ki for M2, second series/experiment, n = 4, [3H]NMS 0.13 nM, average ± SD) is given as 71.6 nM and 71 nM. The Ki ([1]; Ki to M2 receptors, range over both experiments (abstract)) was 70 to 90 nM, the “selectivity ratio to the M3” value ([2]; abstract) was 70 fold and the “selectivity ratio for M2 over M3” value [2] was about 70. For the same molecule, the “selectivity ratio to the M1” value ([3]; abstract) was 65 fold and the “selectivity ratio for M2 over M1” value [3] was “approximately 65”.

With `Ic1ccc(COC2CC3CCCC2N3)cc1` (stereo not drawn) [5b, 6β-4′-iodobenzyl ether of 6β-nortropinol] the “affinity for M2 (in words)” value [1] was “weak affinity”, the Ki [1, 4] was 3000 nM and the “affinity for M3 (in words)” value [2] was “weak affinity”. For the same molecule, the “selectivity ratio for M2 over M3” value [2] was 0.2, the “affinity for M1 (in words)” value [3] was “weak affinity” and the “selectivity ratio for M2 over M1” value [3] was 0.1.

With `O=C(OC1CC2CCCC1N2)c1ccc(I)cc1` (stereo not drawn) [5c, 6β-4′-iodobenzoate ester of 6β-nortropinol] the “affinity for M2 (in words)” value [1] was “weak affinity”, the Ki [1, 4] was 6800 nM and the “affinity for M3 (in words)” value [2] was “weak affinity”. For the same molecule, the “selectivity ratio for M2 over M3” value [2] was 2.0, the “affinity for M1 (in words)” value [3] was “weak affinity” and the “selectivity ratio for M2 over M1” value [3] was 0.6.
